Earlier results in patent publication US20040266704A1, “Method comprising irinotecan for treatment of breast cancer” (priority 2003, published 2004).

Experiments:
[1] = system: advanced or recurrent breast cancer; conditions: intravenous drip-infusion; patients with advanced breast cancer
advanced breast cancer = conditions: intravenous; patients with prior endocrine therapy and prior chemotherapy including adriamycin or other anthracyclines
recurrent breast cancer = conditions: intravenous; four cases, previous chemotherapy including doxorubicin
[2] = system: anthracycline resistant metastatic breast cancer; conditions: intravenous salvage therapy; twelve patients, prior chemotherapy including an anthracycline
[3] = system: advanced and metastatic breast cancer pretreated with doxorubicin and docetaxel; conditions: intravenous
[4] = system: refractory advanced breast cancer; conditions: IV, two schedules; 103 patients who failed an anthracycline, a taxane or both; preliminary data

## CCc1c2c(nc3ccc(OC(=O)N4CCC(N5CCCCC5)CC4)cc13)-c1cc3c(c(=O)n1C2)COC(=O)[C@]3(O)CC [CPT-11, [1,4′-Bipiperidine]-1′-carboxylic acid (4S)-4,11-diethyl-3,4,12,14-tetrahydro-4-hydroxy-3,14-dioxo-1H-pyrano[3′,4′:6,7]indolizino[1,2-b]quinolin-9-yl ester]
[1]
  clinical efficacy against advanced or recurrent breast cancer: effective
Advanced breast cancer
  clinical efficacy in advanced breast cancer: promising drug
Recurrent breast cancer
  clinical efficacy against advanced or recurrent breast cancer: effective agent
[2]
  treatment results in metastatic breast cancer: satisfactory
[3]
  clinical efficacy in the salvage setting: inactive
[4]
  toxicity profile: acceptable toxicity profile
